Data published in patent publication US20230263822A1, “MODULATION OF FACTOR 11 EXPRESSION” (Ionis Pharmaceuticals, Inc., priority 2008, published 2023).
Strand notation (5' to 3'): a small letter for the sugar, then the base; units joined by * are phosphorothioate-linked, units joined directly phosphodiester-linked; [ ] holds rarer units or linkages, { } end groups; capitals alone tell only the bases. e = 2'-O-(2-methoxyethyl) (MOE); [5mC] = 5-methylcytosine; d = 2'-deoxy (DNA)

Legend:
[1] = Tolerability in CD1 mice: liver function, ALT, AST, bilirubin, albumin (Example 33); conditions: plasma, 50 mg/kg s.c. twice a week
Description: A control group of five mice was injected subcutaneously with PBS for 2 weeks. All experimental groups (i.e. ASO treated mice at 2, 4, 6 weeks) were compared to the control group (i.e. PBS, 2 weeks).
To evaluate the effect of ISIS oligonucleotides on hepatic function, plasma concentrations of transaminases were measured using an automated clinical chemistry analyzer (Hitachi Olympus AU400e, Melville, N.Y.). […] Plasma levels of bilirubin and albumin were also measured using the same clinical chemistry analyzer and expressed in mg/dL.

Factor 11 activity = experiment: Factor 11 protein activity, F11 assay based on clotting time (Example 45); format: in vivo, cynomolgus monkeys; conditions: escalating dose regimen
Description: (§1) Groups, each consisting of two male and three female monkeys, were injected subcutaneously with ISIS 416838, ISIS 416850, ISIS 416858, ISIS 416864, or ISIS 417002 in escalating doses. Antisense oligonucleotide was administered to the monkeys at 5 mg/kg three times per a week for week 1; 5 mg/kg twice per week for weeks 2 and 3; 10 mg/kg three times per week for week 4; 10 mg/kg twice per week for weeks 5 and 6; 25 mg/kg three times per week for week 7; and 25 mg/kg twice per week for weeks 8, 9, 10, 11, and 12. One control group, consisting of two male and three female monkeys, was injected subcutaneously with PBS according to the same dosing regimen. An additional experimental group, consisting of two male and three female monkeys, was injected subcutaneously with ISIS 416850 in a chronic, lower dose regimen. Antisense oligonucleotide was administered to the monkeys at 5 mg/kg three times per week for week 1; 5 mg/kg twice per week for week 2 and 3; 10 mg/kg three times per week for week 4; and 10 mg/kg twice per week for weeks 5 to 12. Body weights were measured weekly. Blood samples were collected 14 days and 5 days before the start of treatment and subsequently once per week for Factor 11 protein activity analysis in plasma, fibrinogen measurement, PT and aPTT measurements, bleeding times, and measurement of various hematologic factors. On day 85, the monkeys were euthanized by exsanguination while under deep anesthesia, and organs harvested for further analysis.
Blood samples were collected at various time points and Factor 11 proenzyme was measured using a F11 assay based on clotting time. Clotting times were determined in duplicate with a ST4 semi-automated coagulation instrument (Diagnostica Stago, NJ). Thirty μl of citrated sample plasma diluted 1/20 in HEPES-NaCl buffer with BSA was incubated with 30 μl aPTT reagent (Automated aPTT, Organon Technika, NC) and 30 μl of citrated plasma deficient of Factor 11 (George King Bio-Medical Inc.) at 37° C. for 5 min, followed by the addition of 30 μl of 25 mM CaCl2) to initiate clotting. Results were interpolated on a standard curve of serially diluted citrated control plasma.
Results are presented in Table 118 as percent inhibition of Factor 11 activity, relative to PBS control. The ISIS oligonucleotide, ISIS 416850, given with the chronic dose regimen is distinguished from the other oligonucleotides with an asterisk (*).

[2] = Body and organ weights of cynomolgus monkeys (Example 45); format: in vivo; conditions: for Organ weights, Kidney / Organ weights, Liver / Organ weights, Spleen: after the animals were euthanized; for body weights: escalating dose regimen;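 as to Organ weights, Kidney: absolute organ weight in grams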;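 as to Organ weights, Liver: absolute organ weight in grams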;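 as to Organ weights, Spleen: absolute organ weight in grams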
Description: as §1
Body weights were taken once weekly throughout the dosing regimen. […] Organ weights were taken after the animals were euthanized and livers, kidneys and spleens were harvested and weighed. […] The ISIS oligonucleotide, ISIS 416850, given with the chronic dose regimen is distinguished from the other oligonucleotides with an asterisk (*).

[3] = Tolerability in CD1 mice: body weight and organ weight (Example 43); format: in vivo; conditions: 50 mg/kg s.c. twice per week for 6 weeks, end of study
[4] = Tolerability in Sprague-Dawley rats: body weight and organ weight (Example 44); format: in vivo; conditions: 50 mg/kg s.c. twice per week for 6 weeks; for Change in Kidney weight / Change in Liver weight / Change in Spleen weight: end of study

Substance: ISIS 416864: MOE gapmer, nucleobases 1275 to 1318 of SEQ ID NO: 1 (Table 8) (antisense GGCAGCGGACGGCATTGGTG; MOE gapmer, wing and gap sizes not given here)
- ALT ([1]; 2 weeks): 44 IU/L
- AST ([1]; 2 weeks): 58 IU/L
- Albumin ([1]; 2 weeks): 3.5
- Bilirubin ([1]; 2 weeks): 0.40 mg/dL
- ALT ([1]; 4 weeks): 33 IU/L
- AST ([1]; 4 weeks): 46 IU/L
- Albumin ([1]; 4 weeks): 3.6
- Bilirubin ([1]; 4 weeks): 0.26 mg/dL
- ALT ([1]; 6 weeks): 92 IU/L
- AST ([1]; 6 weeks): 101 IU/L
- Albumin ([1]; 6 weeks): 3.5
- Bilirubin ([1]; 6 weeks): 0.22 mg/dL
- percent inhibition of Factor 11 activity, relative to PBS control (Factor 11 activity; day 8): 7%
- percent inhibition of Factor 11 activity, relative to PBS control (Factor 11 activity; day 15): 9%
- percent inhibition of Factor 11 activity, relative to PBS control (Factor 11 activity; day 22): 7%
- percent inhibition of Factor 11 activity, relative to PBS control (Factor 11 activity; day 29): 10%
- percent inhibition of Factor 11 activity, relative to PBS control (Factor 11 activity; day 36): 9%
- percent inhibition of Factor 11 activity, relative to PBS control (Factor 11 activity; day 43): 9%
- percent inhibition of Factor 11 activity, relative to PBS control (Factor 11 activity; day 50): 10%
- percent inhibition of Factor 11 activity, relative to PBS control (Factor 11 activity; day 57): 7%
- percent inhibition of Factor 11 activity, relative to PBS control (Factor 11 activity; day 64): 5%
- percent inhibition of Factor 11 activity, relative to PBS control (Factor 11 activity; day 71): 10%
- percent inhibition of Factor 11 activity, relative to PBS control (Factor 11 activity; day 78): 9%
- percent inhibition of Factor 11 activity, relative to PBS control (Factor 11 activity; day 85): 8%
- percent inhibition of Factor 11 activity, relative to PBS control (Factor 11 activity; day −5): 5%
- percent inhibition of Factor 11 activity, relative to PBS control (Factor 11 activity; day −14): 0%
- Organ weights, Kidney [2]: 14 g
- Organ weights, Liver [2]: 53 g
- Organ weights, Spleen [2]: 5 g
- body weights ([2]; day 1): 2890 g
- body weights ([2]; day 8): 2784 g
- body weights ([2]; day 15): 2817 g
- body weights ([2]; day 22): 2857 g
- body weights ([2]; day 29): 2863 g
- body weights ([2]; day 36): 3327 g
- body weights ([2]; day 43): 3355 g
- body weights ([2]; day 50): 3408 g
- body weights ([2]; day 57): 3387 g
- body weights ([2]; day 64): 3384 g
- body weights ([2]; day 71): 2942 g
- body weights ([2]; day 78): 2822 g

Substance: ISIS 417002: MOE gapmer, nucleobases 1275 to 1318 of SEQ ID NO: 1 (Table 8) (antisense GGTGCACAGTTTCTGGCAGG; MOE gapmer, wing and gap sizes not given here)
- ALT ([1]; 2 weeks): 71 IU/L
- AST ([1]; 2 weeks): 96 IU/L
- Albumin ([1]; 2 weeks): 3.2
- Bilirubin ([1]; 2 weeks): 0.50 mg/dL
- ALT ([1]; 4 weeks): 138 IU/L
- AST ([1]; 4 weeks): 87 IU/L
- Albumin ([1]; 4 weeks): 3.4
- Bilirubin ([1]; 4 weeks): 0.25 mg/dL
- ALT ([1]; 6 weeks): 2579 IU/L
- AST ([1]; 6 weeks): 1166 IU/L
- Albumin ([1]; 6 weeks): 3.4
- Bilirubin ([1]; 6 weeks): 0.29 mg/dL
- percent inhibition of Factor 11 activity, relative to PBS control (Factor 11 activity; day 8): 0%
- percent inhibition of Factor 11 activity, relative to PBS control (Factor 11 activity; day 15): 4%
- percent inhibition of Factor 11 activity, relative to PBS control (Factor 11 activity; day 22): 2%
- percent inhibition of Factor 11 activity, relative to PBS control (Factor 11 activity; day 29): 8%
- percent inhibition of Factor 11 activity, relative to PBS control (Factor 11 activity; day 36): 8%
- percent inhibition of Factor 11 activity, relative to PBS control (Factor 11 activity; day 43): 9%
- percent inhibition of Factor 11 activity, relative to PBS control (Factor 11 activity; day 50): 13%
- percent inhibition of Factor 11 activity, relative to PBS control (Factor 11 activity; day 57): 24%
- percent inhibition of Factor 11 activity, relative to PBS control (Factor 11 activity; day 64): 26%
- percent inhibition of Factor 11 activity, relative to PBS control (Factor 11 activity; day 71): 30%
- percent inhibition of Factor 11 activity, relative to PBS control (Factor 11 activity; day 78): 22%
- percent inhibition of Factor 11 activity, relative to PBS control (Factor 11 activity; day 85): 23%
- percent inhibition of Factor 11 activity, relative to PBS control (Factor 11 activity; day −5): 0%
- percent inhibition of Factor 11 activity, relative to PBS control (Factor 11 activity; day −14): 0%
- Organ weights, Kidney [2]: 15 g
- Organ weights, Liver [2]: 51 g
- Organ weights, Spleen [2]: 5 g
- body weights ([2]; day 1): 2640 g
- body weights ([2]; day 8): 2523 g
- body weights ([2]; day 15): 2571 g
- body weights ([2]; day 22): 2617 g
- body weights ([2]; day 29): 2622 g
- body weights ([2]; day 36): 2631 g
- body weights ([2]; day 43): 2630 g
- body weights ([2]; day 50): 2652 g
- body weights ([2]; day 57): 2654 g
- body weights ([2]; day 64): 2598 g
- body weights ([2]; day 71): 2727 g
- body weights ([2]; day 78): 2570 g

Substance: ISIS 449707: 3-8-3, 4-8-4, 2-10-2, 3-10-3 or 4-10-4 MOE microwalk gapmer (Table 46) (antisense e[5mC]*eA*e[5mC]*eA*dG*dT*dT*dT*d[5mC]*dT*dG*dG*e[5mC]*eA*eG*eG)
- Change in Kidney weight [3]: −5%
- Change in Liver weight [3]: +11%
- Change in Spleen weight [3]: +63%
- body weight [4]: 352 g
- Change in Kidney weight [4]: +80%
- Change in Liver weight [4]: +41%
- Change in Spleen weight [4]: +400%

Substance: ISIS 449708: 3-8-3, 4-8-4, 2-10-2, 3-10-3 or 4-10-4 MOE microwalk gapmer (Table 46) (antisense eA*e[5mC]*eA*dG*dT*dT*dT*d[5mC]*dT*dG*dG*e[5mC]*eA*eG)
- Change in Kidney weight [3]: 0%
- Change in Liver weight [3]: +17%
- Change in Spleen weight [3]: +66%
- body weight [4]: 382 g
- Change in Kidney weight [4]: +40%
- Change in Liver weight [4]: +31%
- Change in Spleen weight [4]: +259%

Substance: ISIS 449709: 3-8-3, 4-8-4, 2-10-2, 3-10-3 or 4-10-4 MOE microwalk gapmer (Table 46) (antisense eG*e[5mC]*eA*e[5mC]*dA*dG*dT*dT*dT*d[5mC]*dT*dG*dG*d[5mC]*eA*eG*eG*e[5mC])
- Change in Kidney weight [3]: −14%
- Change in Liver weight [3]: +15%
- Change in Spleen weight [3]: +62%
- body weight [4]: 376 g
- Change in Kidney weight [4]: +19%
- Change in Liver weight [4]: +8%
- Change in Spleen weight [4]: +231%

Substance: ISIS 449710: 3-8-3, 4-8-4, 2-10-2, 3-10-3 or 4-10-4 MOE microwalk gapmer (Table 46) (antisense e[5mC]*eA*e[5mC]*dA*dG*dT*dT*dT*d[5mC]*dT*dG*dG*d[5mC]*eA*eG*eG)
- Change in Kidney weight [3]: −7%
- Change in Liver weight [3]: +6%
- Change in Spleen weight [3]: +43%
- body weight [4]: 344 g
- Change in Kidney weight [4]: +50%
- Change in Liver weight [4]: +82%
- Change in Spleen weight [4]: +302%

Substance: ISIS 449711: 3-8-3, 4-8-4, 2-10-2, 3-10-3 or 4-10-4 MOE microwalk gapmer (Table 46) (antisense eA*e[5mC]*dA*dG*dT*dT*dT*d[5mC]*dT*dG*dG*d[5mC]*eA*eG)
- Change in Kidney weight [3]: −12%
- Change in Liver weight [3]: +18%
- Change in Spleen weight [3]: +63%
- body weight [4]: 362 g
- Change in Kidney weight [4]: +72%
- Change in Liver weight [4]: +52%
- Change in Spleen weight [4]: +327%
